Patent publication US11702417B2, “Compounds for improving mRNA splicing” (The General Hospital Corporation, priority 2015, dated 2023)
Read-outs that look alike come from different tables or passages of the source.

Columns and labels:
[1] = tested on: FD (familial dysautomonia) IKBKAP minigene, exon 20 inclusion, in HEK293T cells; test: Primary splicing assay (FD IKBKAP minigene, Firefly/Renilla luciferase reporter in HEK293T); format: cell-based, human; settings: for EC (maximum kinetin efficacy) / Emax: Homo sapiens, HEK-293T; for EC (maximum kinetin efficacy): HEK293T, read-out: ECk (compound concentration at which the maximum kinetin efficacy (200 μM) is reached); for ECk, Firefly only: Renilla interference/Firefly only (footnote c)
[2] = tested on: IKBKAP splicing (exon 20 inclusion) in FD fibroblasts GM04663; test: Secondary assay: IKBKAP splicing analysis by RT-PCR in FD fibroblasts GM04663; format: cell-based; settings: Homo sapiens, FD fibroblasts GM04663, 24 hours of treatment, read-out: % exon Inclusion Normalized
[3] = Firefly/Renilla ratio, 24 hours of treatment
[4] = max efficacy in Primary Assay, Firefly/Renilla ratio, kinetin and DMSO as positive and negative controls, 24 hours of treatment, read-out: Emax (%)
[5] = max efficacy, Firefly only, footnote c: Renilla interference/Firefly only, read-out: Emax (%) Firefly only
[6] = max efficacy in Primary Assay, value flagged footnote a: Firefly inhibitor, read-out: Emax (%)

| Structure (SMILES) | EC (maximum kinetin efficacy) [1, 3] [µM] | Emax [1, 4] [%] | other results |
| --- | --- | --- | --- |
| FC(F)COc1nc2c(NCc3ccncn3)nc(Cl)nc2[nH]1 [(349)] | 0.29 | 227 | activation at 0.08 µM [2]: 27.1%; activation at 0.8 µM [2]: 95.3% |
| Clc1nc(NCc2nccs2)c2cc[nH]c2n1 [(107)] |  |  | Emax [1, 5]: 184%; ECk, Firefly only [1]: 4.58 µM⁻¹; activation at 0.08 µM [2]: 25.6%; activation at 0.8 µM [2]: 93.2% |
| FC1(F)CC(COc2nc3c(NCc4nccs4)nc(Cl)nc3[nH]2)C1 [(362)] | 0.22 | 250 | activation at 0.08 µM [2]: 63.8%; activation at 0.8 µM [2]: 105% |
| OCCOc1nc2c(NCc3ccco3)nc(Cl)nc2[nH]1 [(275)] | 0.75 | 230 | activation at 0.08 µM [2]: 37.2%; activation at 0.8 µM [2]: 101% |
| Clc1nc(NCc2ccco2)c2nn[nH]c2n1 [(285)] | 6.78 | 115 | activation at 0.08 µM [2]: 0.06%; activation at 0.8 µM [2]: 1.46% |
| FC(F)(F)COc1nc2c(NCc3nccs3)nc(Cl)nc2[nH]1 [(302)] | 1.42 | 176 | activation at 0.08 µM [2]: 23.3%; activation at 0.8 µM [2]: 90.8% |
| Clc1nc(NCc2nccs2)c2nc(OCC3CCO3)[nH]c2n1 (stereo not drawn) [(346)] | 1.42 | 181 | activation at 0.08 µM [2]: 23.2%; activation at 0.8 µM [2]: 58.6% |
| FC(F)COc1nc2c(NCc3nccs3)nc(Cl)nc2[nH]1 [(347)] | 0.77 | 186 | activation at 0.08 µM [2]: 18.3%; activation at 0.8 µM [2]: 72% |
| Clc1nc(NCc2nccs2)c2nc(OCc3cscn3)[nH]c2n1 [(348)] | 0.7 | 171 | activation at 0.08 µM [2]: 49%; activation at 0.8 µM [2]: 102% |
| CCOc1nc2c(NCc3ccncn3)nc(Cl)nc2[nH]1 [(320)] | 0.52 | 208 | activation at 0.08 µM [2]: 47.1%; activation at 0.8 µM [2]: 103% |
| Clc1nc(NCc2ccco2)c2nc(OC3COC3)[nH]c2n1 [(269)] | 1.39 | 119 | activation at 0.08 µM [2]: 34.8%; activation at 0.8 µM [2]: 102% |
| Clc1nc(NCc2ccncc2)c2nc(C3CCC3)[nH]c2n1 [(234)] | 19.9 | 94 |  |
| CC(=O)NCCOc1nc2c(NCc3nccs3)nc(Cl)nc2[nH]1 [(397)] |  | 26.3 |  |
| CCNc1nc2c(NCc3ccco3)nc(Cl)nc2[nH]1 [(243)] | 17 | 120 |  |
| CC(Nc1nc(Cl)nc2[nH]cnc12)c1ccncc1 (stereo not drawn) [(366)] |  | 19.2 |  |
| c1coc(CNc2ncnc3cc[nH]c23)c1 [(22)] |  | 49 |  |
| Clc1nc(NCc2nccs2)c2nc(OCC3CCC3)sc2n1 [(341)] | 4.16 | 155 |  |
| FCCn1ccc2c(NCc3nccs3)nc(Cl)nc21 [(192)] | 7.13 | 210 |  |
| Cc1ccccc1CNc1ncnc2[nH]cnc12 [(14)] |  | 53 |  |
| Fc1c[nH]c2nc(Cl)nc(NCc3ccncn3)c12 [(112)] |  |  | Emax [1, 5]: 111%; ECk, Firefly only [1]: 5.33 µM⁻¹ |
| COc1nc2c(N(CCO)Cc3nccs3)nc(Cl)nc2[nH]1 [(386)] |  | 69.2 |  |

| Structure (SMILES) | EC (maximum kinetin efficacy) [1, 3] [µM] | Emax [1, 4] [%] | other results |
| --- | --- | --- | --- |
| CC(C)(C)OC(=O)N1CC(COc2nc3c(NCc4nccs4)nc(Cl)nc3[nH]2)C1 [(471)] | 1.63 | 149 |  |
| Cc1cc(CNc2nc(Cl)nc3[nH]ccc23)ccn1 [(189)] |  | 33 |  |
| COc1nc2c(NCc3ccncn3)nc(Cl)nc2[nH]1 [(261)] | 2.62 | 143 |  |
| Clc1nc(NCc2ccco2)c2nc(OCC3CCC3)[nH]c2n1 [(308)] | 0.15 | 310 |  |
| COc1nc(NCc2ccco2)c2nc(OC)[nH]c2n1 [(365)] |  | 22.4 |  |
| Clc1nc(NCc2ccncn2)c2cc[nH]c2n1 [(110)] |  |  | Emax [1, 5]: 193%; ECk, Firefly only [1]: 4.92 µM⁻¹ |
| Cc1cn(CCO)c2nc(Cl)nc(NCc3ccncn3)c12 [(128)] | 15.4 | 155 |  |
| FC(F)(F)CCOc1nc2c(NCc3cscn3)nc(Cl)nc2[nH]1 [(499)] | 1.67 | 156 |  |
| FCCn1ccc2c(NCc3ccncn3)nc(Cl)nc21 [(191)] | 5.92 | 231 |  |
| Clc1cc(NCc2nccs2)n2ncnc2n1 [(281)] |  | 17 |  |
| O=c1cc(CNc2nc(Cl)nc3[nH]ccc23)cc[nH]1 [(248)] |  | 10 |  |
| Clc1nc(NCc2ccco2)c2nc(-c3ccccc3)[nH]c2n1 [(93)] |  | 63 |  |
| Clc1nc(NCc2ccncn2)c2c(Cl)c[nH]c2n1 [(210)] | 69.2 | 104 |  |
| Cc1nc(NCc2ccco2)c2nc[nH]c2n1 [(45)] |  | 56 |  |
| Clc1nc(NCc2ccno2)c2cc[nH]c2n1 [(178)] |  | 76 |  |
| Nc1nc(NCc2ccco2)c2nn[nH]c2n1 [(279)] |  | 54 |  |
| Fc1cnccc1CNc1nc(Cl)nc2[nH]cnc12 [(227)] | 23.3 | 163 |  |
| CC(Nc1nc(Cl)nc2[nH]ccc12)c1ccncc1 (stereo not drawn) [(359)] |  | 31.5 |  |
| COc1cc(CNc2nc(Cl)nc3[nH]cnc23)ccn1 [(241)] |  | 13 |  |
| Fc1nc(NCc2ccncc2)c2nc[nH]c2n1 [(371)] |  | 82 |  |
| Clc1cc(NCc2ccco2)n2nccc2n1 [(322)] |  | 21 |  |

| Structure (SMILES) | EC (maximum kinetin efficacy) [1, 3] [µM] | Emax [1, 4] [%] | other results |
| --- | --- | --- | --- |
| CNCCn1ccc2c(NCc3ccco3)nc(Cl)nc21 [(213)] |  | 36 |  |
| Clc1nc(NCc2ccco2)c2ncsc2n1 [(253)] | 11.8 | 187 |  |
| CCCOc1nc2c(NCc3nccs3)nc(Cl)nc2n1CCO [(312)] | 2.29 | 195 |  |
| CC(=O)NCCn1ccc2c(NCc3ccco3)nc(Cl)nc21 [(203)] |  |  | Emax [1, 6]: 27% |
| Clc1nc(NCc2ccnc3ccccc23)c2cc[nH]c2n1 [(186)] |  | 17 |  |
| Clc1nc2c(c(NCc3nccs3)n1)COC2 [(502)] |  | 28 |  |
| Fc1cccc(CCNc2ncnc3[nH]cnc23)c1 [(28)] | 123 | 98 |  |
| Clc1nc(NCc2ccccn2)c2nc[nH]c2n1 [(356)] |  | 17 |  |
| COc1cccc(Nc2nc(Cl)nc3[nH]cnc23)c1 [(383)] |  | 30.3 |  |
| CC(C)(COc1nc2c(NCc3nccs3)nc(Cl)nc2[nH]1)OCc1ccccc1 [(400)] |  | 11.4 |  |
| CCCOc1nc2c(NCc3ccco3)nc(Cl)nc2[nH]1 [(292)] | 0.24 | 312 |  |
| Clc1nc(NCc2ccco2)c2c(-c3ccncc3)c[nH]c2n1 [(89)] |  | 21 |  |
| NC(=O)c1c[nH]c2nc(Cl)nc(NCc3ccco3)c12 [(165)] |  | 59 |  |
| FC(F)COc1nc2c(NCc3ccco3)nc(Cl)nc2[nH]1 [(384)] | 1.08 | 152 |  |
| OCCn1cc(F)c2c(NCc3ccncc3)nc(Cl)nc21 [(135)] | 9.06 | 194 |  |
| O=C1Cc2c(NCc3ccncc3)nc(Cl)nc2N1 [(257)] |  | 62 |  |
| Cc1c[nH]c2nc(Cl)nc(NCc3ccncn3)c12 [(126)] | 4.73 | 155 |  |
| CC#CCOc1nc2c(NCc3nccs3)nc(Cl)nc2[nH]1 [(479)] | 3.23 | 144 |  |
| Clc1nc(NCc2ccncn2)c2nc(OCC3CCC3)[nH]c2n1 [(326)] | 0.07 | 287 |  |
| O=C(O)Cn1ccc2c(NCc3ccco3)nc(Cl)nc21 [(167)] |  | 37 |  |
| OCCOc1nc2c(NCc3ccncn3)nc(Cl)nc2[nH]1 [(309)] | 2.08 | 194 |  |

| Structure (SMILES) | EC (maximum kinetin efficacy) [1, 3] [µM] | Emax [1, 4] [%] | other results |
| --- | --- | --- | --- |
| Fc1ccc(CCNc2ncnc3[nH]cnc23)cc1 [(442)] |  | 58.6 |  |
| FC(F)(F)COc1nc2c(NCc3cscn3)nc(Cl)nc2[nH]1 [(392)] | 1.9 | 134 |  |
| CC(C)Oc1nc2c(NCc3ccncc3)nc(Cl)nc2[nH]1 [(277)] | 0.46 | 197 |  |
| Clc1cc(NCc2ccncn2)n2ncnc2n1 [(286)] |  | 38 |  |
| OCCn1ccc2c(NCc3ccncc3)nc(Cl)nc21 [(122)] | 5.65 | 256 |  |
| Clc1nc(NCc2nccs2)c2nc(C3CCC3)[nH]c2n1 [(240)] | 18.2 | 124 |  |
| Clc1nc(NCc2ccncn2)c2nc(OC3CCC3)[nH]c2n1 [(321)] | 1.41 | 197 |  |
| Clc1nc(NCc2cncs2)c2cc[nH]c2n1 [(373)] |  | 25.1 |  |
| Fc1cccc(CNc2nc(Cl)nc3[nH]ccc23)n1 [(494)] |  | 14.1 |  |
| Clc1cc(NCc2ccncn2)n2ccnc2n1 [(298)] |  | 21 |  |
| c1ccc(-c2nc(NCc3ccco3)c3nc[nH]c3n2)cc1 [(38)] |  | 5 |  |
| Clc1nc(NCc2ccncc2)c2nc[nH]c2n1 [(134)] | 6.25 | 174 |  |
| Clc1nc(NCc2ccnc3ccccc23)c2nc[nH]c2n1 [(185)] |  | 22 |  |
| Cc1[nH]c2nc(Cl)nc(NCc3ccco3)c2c1F [(159)] |  |  | Emax [1, 6]: 228%; ECk (RT-PCR) ([1]; determined by RT-PCR, footnote a Firefly inhibitor, footnote b Renilla interference): 1 to 10 µM |
| CCCOc1nc2nc(Cl)nc(NCc3ccncn3)c2n1C [(337)] |  | 23 |  |
| COc1nc2c(NCc3nccs3)nc(C#N)nc2[nH]1 [(385)] |  | 46 |  |
| c1cncc(CCNc2ncnc3[nH]cnc23)c1 [(41)] |  | 35 |  |
| O=C(O)c1ccc(CNc2nc(Cl)nc3[nH]cc(F)c23)cc1 [(117)] |  | 23 |  |
| CNCc1cc2c(NCc3ccco3)nc(Cl)nc2[nH]1 [(181)] | 8.4 | 122 |  |
